{"source": "paper PMC12288536", "about": "“Development of an atrazine immunoassay based on highly catalytically active Au@PtNPs and specific nanobody” (Research Square, 2025)", "key": {"Nanobody-26": {"test_system": "Nanobody-26", "assay": "ic-ELISA based on atrazine nanobody (indirect competitive)", "type": "binding, alpaca", "settings": "for IC50 (Nanobody): coating antigen 2e-BSA; for CR% (Nanobody): cross-reaction = IC50(atrazine)/IC50(analog)", "description": "In this study, ic-ELISA was first used to assess the effect of two coating antigens on the sensitivity of the nanobody. The optimal concentrations of nanobody and coating antigen were confirmed by the checkerboard method, and the sensitivity of nanobody was evaluated under optimal conditions. Detailed procedures for sensitivity assessment of nanobody were presented in the Supplementary Material.\nCross-reactivity evaluation was performed using the developed ic-ELISA for atrazine, simazine, terbuthylazine, terbutryn, cyanuric acid, ametryn, melamine, atrazine-2-hydroxy and 2-chloro-4,6-diamino-1,3,5-triazine. The above compounds were prepared into standard solutions at certain concentrations, and the standard inhibition curves were established. The cross-reactions were calculated according to the respective IC50 obtained from the standard inhibition curves and the following formula: Cross-reaction(CR%)=IC50(atrazine)∕IC50(the other structurally similar compound)"}, "Au@PtNPs-nanobody probe": {"test_system": "Au@PtNPs-nanobody probe", "assay": "dc-ELISA based on Au@PtNPs-nanobody probe (direct competitive), incl. matrix effect evaluation", "type": "binding, alpaca", "settings": "for CR% (Au@PtNPs-nanobody): cross-reaction = IC50(atrazine)/IC50(analog); for IC50 (Au@PtNPs-nanobody): optimal conditions, 1×PBS containing 5% methanol", "description": "The sodium chloride interference method was used to determine the optimal conditions for coupling. Adjust the Au@PtNPs-145 nm (10 mL) to the optimal pH with 0.1 M K2CO3, then the optimal amount of nanobody and BSA (0.1 g) were added dropwise to the solution and stirred for 30 minutes. PEG20000 (0.05 g) was then added to the above solution and incubated at 4°C overnight after stirring for 30 minutes. The probe was purified by fractionation and centrifugation at 4°C, and the precipitate was collected and re-dissolved in 1 mL of probe diluent (pH 7.2, PBS buffer containing 1% sucrose, 0.1% BSA, 0.1% Tween 20 and 0.1% alginate) at 4°C for storage and further use.\nAu@PtNPs-nanobody was used to develop a new dc-ELISA, and the optimal concentrations of probe and coating antigen were confirmed by the checkerboard method, and the sensitivity of dc-ELISA was evaluated under optimal conditions. The cross-reactivity of the dc-ELISA to atrazine analogs was also evaluated to compare with the specificity of ic-ELISA.\nTap water, river water and soil without atrazine were selected as samples for the evaluation of matrix effects. The effect of tap water, river water and soil on the sensitivity of the detection method was evaluated using two newly developed immunoassay methods based on Au@PtNPs-nanobody. The accuracy of the developed method for real samples was also verified using high performance liquid chromatography (HPLC). The solid sample (10 g) was simultaneously extracted with 20 ml of methanol in a vortex mixer for 15 minutes. The mixture was then centrifuged at 4000 rpm for 5 minutes and the supernatant was collected, diluted appropriately and analyzed by HPLC. After confirming that the samples were free of atrazine, atrazine solution was added to the samples so that the final concentrations of atrazine in the samples were 1 μg/mL, 5 μg/mL, and 10 μg/mL, and then the samples were subjected to dc-ELISA. HPLC was also used for validation.\nConsidering the real samples detection, complex matrix can affect the recognition and binding between antibodies and coating antigens/analytes, which seriously interferes with the performance of the immunoassay and affects the accuracy of the analytical results. Therefore, matrix effects should be minimized or eliminated during sample analysis to ensure the accuracy of the immunoassay method. The simplest method for matrix elimination or reduction is to dilute the sample with the assay buffer. In this study, tap water, river water and soil were selected for matrix effect evaluation. The tap water samples confirmed to be none of atrazine were diluted directly with 1×PBS to a total dilution ratio of 2-, 4-, 8-, and 16-fold, and then different concentrations of atrazine solution were prepared with these obtained buffer solutions, respectively. […] But, tap water samples diluted […] had higher IC50 when compared with assay buffer or other diluted samples. […] Therefore, the 4-fold dilution was selected for the tap water samples. Similarly, river water samples diluted 4-fold and 8-fold had higher IC50 values compared to assay buffer or other diluted samples. […] Therefore, 16-fold dilution was selected for the river water sample (Fig. 4C). Soil samples without atrazine were used as blank samples and extracted with methanol, then diluted with 1×PBS resulting in a total dilution ratio of 10, 20, 40, 60 and 80-fold. Atrazine standard solutions were prepared using the above obtained buffer solutions. […] When the soil matrix was diluted 60 and 80-fold, there was no significant difference between their maximum absorbance and IC50 . Therefore, the 60-fold dilution was selected for the next spike and recovery study. Spiked-recovery validation using both HPLC and dc-ELISA to evaluate the precision of the dc-ELISA. […] Also, the results of the dc-ELISA method were approximately consistent with that of HPLC."}}, "data": [{"molecule": "Nc1nc(N)nc(Cl)n1", "note": "[2-chloro-4,6-diamino-1,3,5-triazine]", "values": [{"measurement": "IC50 (Nanobody)", "setting": "Nanobody-26", "result": 1.1, "unit": "µg/mL"}, {"measurement": "CR% (Nanobody)", "setting": "Nanobody-26", "result": 5.40, "unit": "%"}, {"measurement": "CR% (Au@PtNPs-nanobody)", "setting": "Au@PtNPs-nanobody probe", "result": 3.42, "unit": "%"}, {"measurement": "IC50 (Au@PtNPs-nanobody)", "setting": "Au@PtNPs-nanobody probe", "result": 0.93, "unit": "µg/mL"}]}, {"molecule": "CCNc1nc(NC(C)C)nc(SC)n1", "note": "[Ametryn]", "values": [{"measurement": "IC50 (Nanobody)", "setting": "Nanobody-26", "result": 0.23, "unit": "µg/mL"}, {"measurement": "CR% (Nanobody)", "setting": "Nanobody-26", "result": 27.4, "unit": "%"}, {"measurement": "CR% (Nanobody)", "setting": "Nanobody-26; listed as ametryn", "result": "about 30%"}, {"measurement": "CR% (Au@PtNPs-nanobody)", "setting": "Au@PtNPs-nanobody probe", "result": 3.55, "unit": "%"}, {"measurement": "IC50 (Au@PtNPs-nanobody)", "setting": "Au@PtNPs-nanobody probe", "result": 0.90, "unit": "µg/mL"}]}, {"molecule": "CCNc1nc(NC(C)C)[nH]c(=O)n1", "note": "[Atrazine-2-hydroxy]", "values": [{"measurement": "IC50 (Nanobody)", "setting": "Nanobody-26", "result": "> 100", "unit": "µg/mL"}, {"measurement": "CR% (Nanobody)", "setting": "Nanobody-26", "result": "< 0.1", "unit": "%"}, {"measurement": "CR% (Au@PtNPs-nanobody)", "setting": "Au@PtNPs-nanobody probe", "result": "< 0.1", "unit": "%"}, {"measurement": "IC50 (Au@PtNPs-nanobody)", "setting": "Au@PtNPs-nanobody probe", "result": "> 100", "unit": "µg/mL"}]}, {"molecule": "CCNc1nc(Cl)nc(NC(C)C)n1", "note": "[Atrazine]", "values": [{"measurement": "IC50 (Nanobody)", "setting": "Nanobody-26", "result": 0.062, "unit": "µg/mL"}, {"measurement": "CR% (Nanobody)", "setting": "Nanobody-26", "result": 100, "unit": "%"}, {"measurement": "CR% (Au@PtNPs-nanobody)", "setting": "Au@PtNPs-nanobody probe", "result": 100, "unit": "%"}, {"measurement": "IC50 (Au@PtNPs-nanobody)", "setting": "Au@PtNPs-nanobody probe", "result": 0.032, "unit": "µg/mL"}]}, {"molecule": "Oc1nc(O)nc(O)n1", "note": "[Cyanuric acid]", "values": [{"measurement": "IC50 (Nanobody)", "setting": "Nanobody-26", "result": "> 100", "unit": "µg/mL"}, {"measurement": "CR% (Nanobody)", "setting": "Nanobody-26", "result": "< 0.1", "unit": "%"}, {"measurement": "CR% (Au@PtNPs-nanobody)", "setting": "Au@PtNPs-nanobody probe", "result": "< 0.1", "unit": "%"}, {"measurement": "IC50 (Au@PtNPs-nanobody)", "setting": "Au@PtNPs-nanobody probe", "result": "> 100", "unit": "µg/mL"}]}, {"molecule": "Nc1nc(N)nc(N)n1", "note": "[Melamine]", "values": [{"measurement": "IC50 (Nanobody)", "setting": "Nanobody-26", "result": "> 100", "unit": "µg/mL"}, {"measurement": "CR% (Nanobody)", "setting": "Nanobody-26", "result": "< 0.1", "unit": "%"}, {"measurement": "CR% (Au@PtNPs-nanobody)", "setting": "Au@PtNPs-nanobody probe", "result": "< 0.1", "unit": "%"}, {"measurement": "IC50 (Au@PtNPs-nanobody)", "setting": "Au@PtNPs-nanobody probe", "result": "> 100", "unit": "µg/mL"}]}, {"molecule": "CCNc1nc(Cl)nc(NCC)n1", "note": "[Simazine]", "values": [{"measurement": "IC50 (Nanobody)", "setting": "Nanobody-26", "result": 0.18, "unit": "µg/mL"}, {"measurement": "CR% (Nanobody)", "setting": "Nanobody-26", "result": 33.6, "unit": "%"}, {"measurement": "CR% (Nanobody)", "setting": "Nanobody-26; listed as simazine", "result": "about 30%"}, {"measurement": "CR% (Au@PtNPs-nanobody)", "setting": "Au@PtNPs-nanobody probe", "result": 6.01, "unit": "%"}, {"measurement": "CR% (Au@PtNPs-nanobody)", "setting": "Au@PtNPs-nanobody probe; listed as simazine", "result": "less than 7%"}, {"measurement": "IC50 (Au@PtNPs-nanobody)", "setting": "Au@PtNPs-nanobody probe", "result": 0.53, "unit": "µg/mL"}]}, {"molecule": "CCNc1nc(Cl)nc(NC(C)(C)C)n1", "note": "[Terbuthylazine]", "values": [{"measurement": "IC50 (Nanobody)", "setting": "Nanobody-26", "result": 0.085, "unit": "µg/mL"}, {"measurement": "CR% (Nanobody)", "setting": "Nanobody-26", "result": 72.7, "unit": "%"}, {"measurement": "CR% (Au@PtNPs-nanobody)", "setting": "Au@PtNPs-nanobody probe", "result": 10.9, "unit": "%"}, {"measurement": "IC50 (Au@PtNPs-nanobody)", "setting": "Au@PtNPs-nanobody probe", "result": 0.29, "unit": "µg/mL"}]}, {"molecule": "CCNc1nc(NC(C)(C)C)nc(SC)n1", "note": "[Terbutryn]", "values": [{"measurement": "IC50 (Nanobody)", "setting": "Nanobody-26", "result": "> 100", "unit": "µg/mL"}, {"measurement": "CR% (Nanobody)", "setting": "Nanobody-26", "result": "< 0.1", "unit": "%"}, {"measurement": "CR% (Nanobody)", "setting": "Nanobody-26; listed as terbutryn", "result": "greater than 70%"}, {"measurement": "CR% (Au@PtNPs-nanobody)", "setting": "Au@PtNPs-nanobody probe", "result": "< 0.1", "unit": "%"}, {"measurement": "CR% (Au@PtNPs-nanobody)", "setting": "Au@PtNPs-nanobody probe; listed as terbutryn", "result": "greater than 10%"}, {"measurement": "IC50 (Au@PtNPs-nanobody)", "setting": "Au@PtNPs-nanobody probe", "result": "> 100", "unit": "µg/mL"}]}, {"molecule": "CCNc1nc(N)nc(Cl)n1", "note": "[deisopropylatrazine]", "values": [{"measurement": "CR% (Au@PtNPs-nanobody)", "setting": "Au@PtNPs-nanobody probe", "result": "less than 7%"}]}]}
